Data published in US20210283261A1, “Compositions and Methods for Treating ALK-Mediated Cancer” (ICAHN SCHOOL OF MEDICINE AT MOUNT SINAI, priority 2017, published 2021).

target: T1, NPM-ALK fusion protein (Homo sapiens, UniProt Q9UM73); test: Western blot of NPM-ALK fusion protein levels in SU-DHL-1 cells; format: cell-based; details: SU-DHL-1 cells, 30 nM, Western blot; read-out: ALK fusion protein degradation, SU-DHL-1 (30 nM)
T1 construct: endogenous in cells; host or cells: SU-DHL-1; the other entry of the earlier key: NPM1 (P06748, Nucleophosmin)
Method: Cells were cultured in a 37° C. incubator with 5% CO2.
Cells were washed with cold PBS once and lysed in 1× Laemmli loading buffer directly. […] Membrane was blocked in 5% milk in Tris-buffered saline and Tween 20 (TBST) for 1 h at room temperature, followed by incubation with a primary antibody overnight at 4° C., and a horseradish peroxidase (HRP)-conjugated secondary antibody for 1 h at room temperature. The membrane was imaged by a ChemiDoc MP imaging system (BIO-RAD). Antibodies against GAPDH (abeam), Phospho-ALK (Tyr1507), ALK (Cell Signaling Technology), Tubulin (Santa Cruz) were purchased commercially.
SU-DHL-1 suspension cells were seeded in 12-well plates at a density of 6×10^5/mL and treated with DMSO or indicated compounds at 30 nM or 100 nM for indicated time.
SU-DHL-1 cells were seeded in 12-well plates at a density of 4×10^5/mL and treated with DMSO or indicated serial dilutions of compounds for 16 h. The NPM-ALK fusion protein levels were determined by Western blot and normalized against GPADH (right panel).

T1 sequence (Q9UM73 with tags, fused parts or gaps): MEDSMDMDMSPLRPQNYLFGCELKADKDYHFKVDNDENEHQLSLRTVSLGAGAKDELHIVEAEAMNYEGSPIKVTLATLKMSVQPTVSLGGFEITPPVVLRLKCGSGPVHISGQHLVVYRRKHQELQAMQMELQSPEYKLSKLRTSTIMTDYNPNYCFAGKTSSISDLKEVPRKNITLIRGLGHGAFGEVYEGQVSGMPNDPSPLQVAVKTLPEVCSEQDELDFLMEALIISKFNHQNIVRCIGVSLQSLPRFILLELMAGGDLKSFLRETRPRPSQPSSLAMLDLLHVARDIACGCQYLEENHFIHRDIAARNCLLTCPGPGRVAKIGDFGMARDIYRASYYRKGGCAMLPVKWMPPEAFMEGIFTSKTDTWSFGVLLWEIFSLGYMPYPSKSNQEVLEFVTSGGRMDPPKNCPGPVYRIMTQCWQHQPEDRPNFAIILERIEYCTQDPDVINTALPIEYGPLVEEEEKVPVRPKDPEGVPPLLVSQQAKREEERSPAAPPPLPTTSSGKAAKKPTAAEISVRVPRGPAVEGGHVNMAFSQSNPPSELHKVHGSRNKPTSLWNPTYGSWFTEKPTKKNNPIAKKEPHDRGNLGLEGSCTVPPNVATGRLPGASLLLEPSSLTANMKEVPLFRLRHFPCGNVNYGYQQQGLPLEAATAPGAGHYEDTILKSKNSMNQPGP

Dmax at 0.03 µM | SMILES
20 to 80% | Cc1cc(Nc2ncc(Cl)c(Nc3ccccc3S(=O)(=O)C(C)C)n2)c(OC(C)C)cc1C1CCN(CC(=O)NCCCCNc2cccc3c2C(=O)N(C2CCC(=O)NC2=O)C3=O)CC1 (stereo not shown) [CZ40-80, 2-(4-(4-((5-Chloro-4-((2-(isopropylsulfonyl)phenyl)amino)pyrimidin-2-yl)amino)-5-isopropoxy-2-methylphenyl)piperidin-1-yl)-N-(4-((2-(2,6-dioxopiperidin-3-yl)-1,3-dioxoisoindolin-4-yl)amino)butyl)acetamide]
> 80% | Cc1cc(Nc2ncc(Cl)c(Nc3ccccc3S(=O)(=O)C(C)C)n2)c(OC(C)C)cc1C1CCN(CC(=O)NCCCCCCNc2cccc3c2C(=O)N(C2CCC(=O)NC2=O)C3=O)CC1 (stereo not shown) [CZ40-82, 2-(4-(4-((5-Chloro-4-((2-(isopropylsulfonyl)phenyl)amino)pyrimidin-2-yl)amino)-5-isopropoxy-2-methylphenyl)piperidin-1-yl)-N-(6-((2-(2,6-dioxopiperidin-3-yl)-1,3-dioxoisoindolin-4-yl)amino)hexyl)acetamide]
20 to 80% | Cc1cc(Nc2ncc(Cl)c(Nc3ccccc3S(=O)(=O)C(C)C)n2)c(OC(C)C)cc1C1CCN(CC(=O)NCCCCCCCCNc2cccc3c2C(=O)N(C2CCC(=O)NC2=O)C3=O)CC1 (stereo not shown) [CZ40-84, 2-(4-(4-((5-Chloro-4-((2-(isopropylsulfonyl)phenyl)amino)pyrimidin-2-yl)amino)-5-isopropoxy-2-methylphenyl)piperidin-1-yl)-N-(8-((2-(2,6-dioxopiperidin-3-yl)-1,3-dioxoisoindolin-4-yl)amino)octyl)acetamide]
< 20% | Cc1cc(Nc2ncc(Cl)c(Nc3ccccc3S(=O)(=O)C(C)C)n2)c(OC(C)C)cc1C1CCN(CC(=O)NCCOCC(=O)N[C@H](C(=O)N2C[C@H](O)C[C@H]2C(=O)NCc2ccc(-c3scnc3C)cc2)C(C)(C)C)CC1 [CZ40-85, (2S,4R)-1-((S)-2-(2-(2-(2-(4-(4-((5-Chloro-4-((2-(isopropylsulfonyl)phenyl)amino)pyrimidin-2-yl)amino)-5-isopropoxy-2-methylphenyl)piperidin-1-yl)acetamido)ethoxy)acetamido)-3,3-dimethylbutanoyl)-4-hydroxy-N-(4-(4-methylthiazol-5-yl)benzyl)pyrrolidine-2-carboxamide]
< 20% | Cc1cc(Nc2ncc(Cl)c(Nc3ccccc3S(=O)(=O)C(C)C)n2)c(OC(C)C)cc1C1CCN(CC(=O)NCCOCCOCC(=O)N[C@H](C(=O)N2C[C@H](O)C[C@H]2C(=O)NCc2ccc(-c3scnc3C)cc2)C(C)(C)C)CC1 [CZ40-86, (2S,4R)-1-((S)-2-(tert-Butyl)-14-(4-(4-((5-chloro-4-((2-(isopropylsulfonyl)phenyl)amino)pyrimidin-2-yl)amino)-5-isopropoxy-2-methylphenyl)piperidin-1-yl)-4,13-dioxo-6,9-dioxa-3,12-diazatetradecanoyl)-4-hydroxy-N-(4-(4-methylthiazol-5-yl)benzyl)pyrrolidine-2-carboxamide]
< 20% | Cc1cc(Nc2ncc(Cl)c(Nc3ccccc3S(=O)(=O)C(C)C)n2)c(OC(C)C)cc1C1CCN(CC(=O)NCCOCCOCCOCCOCCC(=O)N[C@H](C(=O)N2C[C@H](O)C[C@H]2C(=O)NCc2ccc(-c3scnc3C)cc2)C(C)(C)C)CC1 [CZ40-87, (2S,4R)-1-((S)-20-(tert-Butyl)-1-(4-(4-((5-chloro-4-((2-(isopropylsulfonyl)phenyl)amino)pyrimidin-2-yl)amino)-5-isopropoxy-2-methylphenyl)piperidin-1-yl)-2,18-dioxo-6,9,12,15-tetraoxa-3,19-diazahenicosan-21-oyl)-4-hydroxy-7V-(4-(4-methylthiazol-5-yl)benzyl)pyrrolidine-2-carboxamide]
< 20% | Cc1cc(Nc2ncc(Cl)c(Nc3ccccc3S(=O)(=O)C(C)C)n2)c(OC(C)C)cc1C1CCN(CC(=O)NCCCCCCC(=O)N[C@H](C(=O)N2C[C@H](O)C[C@H]2C(=O)NCc2ccc(-c3scnc3C)cc2)C(C)(C)C)CC1 [CZ40-90, (2S,4R)-1-((S)-2-(7-(2-(4-(4-((5-Chloro-4-((2-(isopropylsulfonyl)phenyl)amino)pyrimidin-2-yl)amino)-5-isopropoxy-2-methylphenyl)piperidin-1-yl)acetamido)heptanamido)-3,3-dimethylbutanoyl)-4-hydroxy-N-(4-(4-methylthiazol-5-yl)benzyl)pyrrolidine-2-carboxamide]
< 20% | Cc1cc(Nc2ncc(Cl)c(Nc3ccccc3S(=O)(=O)C(C)C)n2)c(OC(C)C)cc1C1CCN(CC(=O)NCCCCCCCCC(=O)N[C@H](C(=O)N2C[C@H](O)C[C@H]2C(=O)NCc2ccc(-c3scnc3C)cc2)C(C)(C)C)CC1 [CZ40-92, (2S,4R)-1-((S)-2-(9-(2-(4-(4-((5-Chloro-4-((2-(isopropylsulfonyl)phenyl)amino)pyrimidin-2-yl)amino)-5-isopropoxy-2-methylphenyl)piperidin-1-yl)acetamido)nonanaimdo)-3,3-dimethylbutanoyl)-4-hydroxy-N-(4-(4-methylthiazol-5-yl)benzyl)pyrrolidine-2-carboxamide]

The remaining lines, values behind:

SMILES | Dmax at 0.03 µM
Cc1cc(Nc2ncc(Cl)c(Nc3ccccc3S(=O)(=O)C(C)C)n2)c(OC(C)C)cc1C1CCN(CC(=O)NCCOCCOCCNc2cccc3c2C(=O)N(C2CCC(=O)NC2=O)C3=O)CC1 (stereo not shown) [CZ40-51, 2-(4-(4-((5-Chloro-4-((2-(isopropylsulfonyl)phenyl)amino)pyrimidin-2-yl)amino)-5-isopropoxy-2-methylphenyl)piperidin-1-yl)-N-(2-(2-(2-((2-(2,6-dioxopiperidin-3-yl)-1,3-dioxoisoindolin-4-yl)amino)ethoxy)ethoxy)ethyl)acetamide] | > 80%
Cc1cc(Nc2ncc(Cl)c(Nc3ccccc3S(=O)(=O)C(C)C)n2)c(OC(C)C)cc1C1CCN(CC(=O)NCCOCCOCCOCCNc2cccc3c2C(=O)N(C2CCC(=O)NC2=O)C3=O)CC1 (stereo not shown) [CZ40-52, 2-(4-(4-((5-Chloro-4-((2-(isopropylsulfonyl)phenyl)amino)pyrimidin-2-yl)amino)-5-isopropoxy-2-methylphenyl)piperidin-1-yl)-N-(2-(2-(2-(2-((2-(2,6-dioxopiperidin-3-yl)-1,3-dioxoisoindolin-4-yl)amino)ethoxy)ethoxy)ethoxy)ethyl)acetamide] | > 80%
Cc1cc(Nc2ncc(Cl)c(Nc3ccccc3S(=O)(=O)C(C)C)n2)c(OC(C)C)cc1C1CCN(CC(=O)NCCCNc2cccc3c2C(=O)N(C2CCC(=O)NC2=O)C3=O)CC1 (stereo not shown) [CZ40-79, 2-(4-(4-((5-Chloro-4-((2-(isopropylsulfonyl)phenyl)amino)pyrimidin-2-yl)amino)-5-isopropoxy-2-methylphenyl)piperidin-1-yl)-N-(3-((2-(2,6-dioxopiperidin-3-yl)-1,3-dioxoisoindolin-4-yl)amino)propyl)acetamide] | > 80%
Cc1cc(Nc2ncc(Cl)c(Nc3ccccc3S(=O)(=O)C(C)C)n2)c(OC(C)C)cc1C1CCN(CC(=O)NCCCCCNc2cccc3c2C(=O)N(C2CCC(=O)NC2=O)C3=O)CC1 (stereo not shown) [CZ40-81, 2-(4-(4-((5-Chloro-4-((2-(isopropylsulfonyl)phenyl)amino)pyrimidin-2-yl)amino)-5-isopropoxy-2-methylphenyl)piperidin-1-yl)-N-(5-((2-(2,6-dioxopiperidin-3-yl)-1,3-dioxoisoindolin-4-yl)amino)pentyl)acetamide] | > 80%
Cc1cc(Nc2ncc(Cl)c(Nc3ccccc3S(=O)(=O)C(C)C)n2)c(OC(C)C)cc1C1CCN(CC(=O)NCCCCCCCNc2cccc3c2C(=O)N(C2CCC(=O)NC2=O)C3=O)CC1 (stereo not shown) [CZ40-83, 2-(4-(4-((5-Chloro-4-((2-(isopropylsulfonyl)phenyl)amino)pyrimidin-2-yl)amino)-5-isopropoxy-2-methylphenyl)piperidin-1-yl)-N-(7-((2-(2,6-dioxopiperidin-3-yl)-1,3-dioxoisoindolin-4-yl)amino)heptyl)acetamide] | > 80%
Cc1cc(Nc2ncc(Cl)c(Nc3ccccc3S(=O)(=O)C(C)C)n2)c(OC(C)C)cc1C1CCN(CC(=O)NCCCCC(=O)N[C@H](C(=O)N2C[C@H](O)C[C@H]2C(=O)NCc2ccc(-c3scnc3C)cc2)C(C)(C)C)CC1 [CZ40-88, (2S,4R)-1-((S)-2-(5-(2-(4-(4-((5-Chloro-4-((2-(isopropylsulfonyl)phenyl)amino)pyrimidin-2-yl)amino)-5-isopropoxy-2-methylphenyl)piperidin-1-yl)acetamido)pentanamido)-3,3-dimethylbutanoyl)-4-hydroxy-N-(4-(4-methylthiazol-5-yl)benzyl)pyrrolidine-2-carboxamide] | 20 to 80%
Cc1cc(Nc2ncc(Cl)c(Nc3ccccc3S(=O)(=O)C(C)C)n2)c(OC(C)C)cc1C1CCN(CC(=O)NCCCCCC(=O)N[C@H](C(=O)N2C[C@H](O)C[C@H]2C(=O)NCc2ccc(-c3scnc3C)cc2)C(C)(C)C)CC1 [CZ40-89, (2S,4R)-1-((S)-2-(6-(2-(4-(4-((5-chloro-4-((2-(isopropylsulfonyl)phenyl)amino)pyrimidin-2-yl)amino)-5-isopropoxy-2-methylphenyl)piperidin-1-yl)acetamido)hexanamido)-3,3-dimethylbutanoyl)-4-hydroxy-N-(4-(4-methylthiazol-5-yl)benzyl)pyrrolidine-2-carboxamide] | 20 to 80%
Cc1cc(Nc2ncc(Cl)c(Nc3ccccc3S(=O)(=O)C(C)C)n2)c(OC(C)C)cc1C1CCN(CC(=O)NCCCCCCCCCC(=O)N[C@H](C(=O)N2C[C@H](O)C[C@H]2C(=O)NCc2ccc(-c3scnc3C)cc2)C(C)(C)C)CC1 [CZ40-93] | < 20%
